{"source": "patent US10292931B2", "about": "“Stable liquid pharmaceutical composition based on trazodone” (AZIENDE CHIMICHE RIUNITE ANGELINI FRANCESCO A.C.R.A.F. …, priority 2007, dated 2019)", "origin": "cited, not measured here", "key": {"[1]": {"details": "room temperature"}, "[2]": {"details": "1% (w/v) aqueous solution"}}, "note": "Structures can show the parent of a compound that is named as a salt. Where two headings read alike, the source gives them in different places.", "data": [{"smiles": "O=c1n(CCCN2CCN(c3cccc(Cl)c3)CC2)nc2ccccn12", "note": "[trazodone hydrochloride]", "values": [{"measurement": "solubility", "setting": "[1]; 95% ethanol", "value": 1.6, "unit": "g/100 ml"}, {"measurement": "solubility", "setting": "[1]; benzene", "value": "practically insoluble"}, {"measurement": "solubility", "setting": "[1]; chloroform", "value": 3.6, "unit": "g/100 ml"}, {"measurement": "solubility", "setting": "[1]; ethyl ether", "value": "practically insoluble"}, {"measurement": "solubility", "setting": "[1]; methanol", "value": 2.5, "unit": "g/100 ml"}, {"measurement": "solubility", "setting": "[1]; octanol", "value": "less than 0.1 g/100 ml"}, {"measurement": "solubility", "setting": "[1]; olive oil", "value": "less than 0.1 g/100 ml"}, {"measurement": "solubility", "setting": "[1]; water", "value": 1.8, "unit": "g/100 ml"}, {"measurement": "pH of aqueous solution", "setting": "[2]", "value": "approx. 3.90"}]}]}
